# Measurements from publication PMC4986129, “A Peroxidase-linked Spectrophotometric Assay for the Detection of Monoamine Oxidase Inhibitors” (Iranian Journal of Pharmaceutical Research : IJPR, 2016).
# Molecular target: T1, MAO-B (Rattus norvegicus, UniProt P19643)
# T1 construct: gene Maob
# T1 sequence (P19643 2-520): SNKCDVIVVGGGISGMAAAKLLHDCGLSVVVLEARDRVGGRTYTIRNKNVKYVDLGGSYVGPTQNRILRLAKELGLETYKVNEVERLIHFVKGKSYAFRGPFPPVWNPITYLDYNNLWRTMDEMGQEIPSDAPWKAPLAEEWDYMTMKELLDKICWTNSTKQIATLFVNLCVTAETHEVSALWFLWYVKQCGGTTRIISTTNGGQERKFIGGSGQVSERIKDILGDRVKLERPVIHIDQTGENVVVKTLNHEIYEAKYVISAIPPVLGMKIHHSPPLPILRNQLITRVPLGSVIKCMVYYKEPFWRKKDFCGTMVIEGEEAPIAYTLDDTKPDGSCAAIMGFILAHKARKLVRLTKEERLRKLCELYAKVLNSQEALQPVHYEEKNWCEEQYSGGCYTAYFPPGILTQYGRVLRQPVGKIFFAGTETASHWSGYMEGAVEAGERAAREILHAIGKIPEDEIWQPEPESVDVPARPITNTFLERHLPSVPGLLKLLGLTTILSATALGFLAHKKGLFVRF
# Assay: peroxidase-linked spectrophotometric assay, crude rat liver mitochondria with MAO-A blocked by clorgyline
# Assay type: biochemical
structure (smiles),measurement,value
C#CCN(C)Cc1ccccc1 [pargyline],IC50,13.4 ± 0.16 nM
